{"source": "patent US10894817B2", "about": "“Fatty acid modified urocortin-2 analogs for the treatment of diabetes and chronic kidney disease” (priority 2016, dated 2021)", "key": {"human CRHR2b": {"target": "T1, human CRHR2b (Homo sapiens, UniProt Q13324)", "T1 construct": "expressed in transfected cells; host or cells: Chinese Hamster Ovary (CHO) cells, transient transfection", "T1 sequence (Q13324 1-438 isoform Q13324-2)": "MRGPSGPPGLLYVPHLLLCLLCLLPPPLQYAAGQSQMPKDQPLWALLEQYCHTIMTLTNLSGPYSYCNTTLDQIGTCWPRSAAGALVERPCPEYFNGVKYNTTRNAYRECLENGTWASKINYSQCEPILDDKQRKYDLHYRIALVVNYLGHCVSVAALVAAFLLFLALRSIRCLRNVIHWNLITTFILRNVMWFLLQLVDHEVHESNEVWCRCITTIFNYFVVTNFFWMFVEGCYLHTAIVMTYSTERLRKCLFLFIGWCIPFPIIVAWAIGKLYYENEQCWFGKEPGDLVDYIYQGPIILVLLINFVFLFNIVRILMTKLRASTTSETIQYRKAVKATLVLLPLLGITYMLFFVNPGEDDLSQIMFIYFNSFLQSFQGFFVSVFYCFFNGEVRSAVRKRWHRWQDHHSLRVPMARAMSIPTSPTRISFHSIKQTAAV", "assay": "human CRHR2b cell-based cAMP assay", "conditions": "cAMP assay, read-out: hCRHR2b Average EC50", "how_it_was_run": "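ED50 values are means ± SEM over several runs, curve-fitted from cAMP in pmol, calibrated against unlabeled-cAMP standards. Detection was HTRF competition, ratio 665/620 nm, after 30 min agonist exposure at 37 °C.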"}, "[1]": {"assay": "Pharmacokinetics, single subcutaneous dose, mice", "conditions": "male, CD-1, mouse, plasma, sc, 388 nmol/kg"}, "[2]": {"system": "UniNx db/db AAV renin mice", "assay": "Uninephrectomized db/db AAV renin model of diabetic nephropathy", "type": "in vivo", "protocol": "The uninephrectomized db/db adeno-associated viral (AAV) renin model represents a progressive model of diabetic kidney disease with hypertension driven by an AAV renin transgene (Am J Physiol Regul Integr Comp Physiol. 309(5):R467-74, (2015)).\nThe uninephrectomy (UniNx) surgery on female db/db mice on a C57BLKS/J background (obtained from Harlan Laboratories) is performed by Harlan Laboratories at 4 weeks of age with removal of the right kidney to accelerate the diabetic kidney disease. Animals are received at 5 weeks of age and housed in micro-isolator cages at 3 mice per cage and are on a 12 hour light/dark cycle. All db/db mice are fed ad libitum with Purina special diet 5008 and allowed free access to autoclaved water.\nMice are acclimated for 7 weeks prior to administration of AAV Renin (5×10^9 GC) intravenously by the retro-orbital sinus to induce persistent hypertension. Randomization by urine albumin to creatinine ratio (ACR), blood glucose and body weight is done at 15 weeks of age (a point at which renal disease and pathology are established in this model based on observations) into 2 groups of 12 saline control mice and 33 mice to receive Lisinopril treatment.\nDosing with Lisinopril (30 mg/L) begins at 16 weeks of age. After 2 weeks of Lisinopril treatment, the 33 mice are randomized by urine ACR, blood glucose and body weight into 4 groups (one group of 9 mice and 3 groups of 8 mice).\nIn the 4 groups of UniNx db/db AAV renin mice receiving Lisinopril treatment, either 0.9% physiological saline for injection (“saline control” N=9) or different dose levels of Example 4 (7.2, 24 or 72 nmol/kg, N=8 per dose level) are dosed at 0.2 mL s.c. per injection beginning at 18 weeks of age and continued 3 times weekly for 12 weeks. Albumin and creatinine are measured in urine with a Roche Hitachi Modular Analytics P analyzer with Roche reagents for detection of albumin and creatinine.\nFor all the groups, the parameters measured are body weight, kidney weight, heart weight, urine albumin to creatinine ratio, serum creatinine and renal pathology scores for mesangial matrix expansion, glomerular fibrosis, tubular regeneration, interstitial inflammation and interstitial fibrosis.\nAt 15 and 27 weeks of age, blood (30 to 50 uL) from all the UniNx db/db AAV Renin mice is obtained from the tail vein and dropped onto a Precision PCx blood glucose sensor electrode strip (Abbott Laboratories) for blood glucose determination with a MediSense Precision PCx glucometer (Abbott Laboratories). Blood glucose data is used to block the UniNx db/db mice into equivalent groups. Body weight is determined at baseline and at termination with a Metler Toledo Balance. The heart and kidney are removed at necropsy and weighed on a Metler Toledo Balance. Blood (500 ul) is collected from the retro-orbital sinus at termination under isoflurane anesthesia. The clotted blood is centrifuged to obtain serum. Serum is analyzed for creatinine on a Roche Hitachi Modular Analytics P analyzer with reagents from Roche.\nUrine is collected by a spot collection method to collect urine over a 2-4 hr time period. An individual mouse is placed on top of a 96 well polypropylene microplate and then covered by a Plexiglas chamber with holes for breathing but no access to food or water. At the end of the time period, the urine is removed from the plate with a micropipette and placed on ice, centrifuged and subjected to albumin and creatinine analysis. Urine albumin, creatinine and glucose are determined on a Roche Hitachi Modular Analytics P analyzer. Urine creatinine is determined with the Creatinine Plus reagent by Roche. For urine albumin, the Roche Microalbumin assay is modified to adapt the calibration curve for measuring urine albumin in mice. Albuminuria was defined as albumin to creatinine ratio (ACR).\nKidneys are removed at study termination, fixed in formalin and processed for paraffin sectioning according to standard methodology. […]"}, "[3]": {"conditions": "CHO cells transfected with human CRHR2b, mean ± SEM of runs"}, "[4]": {"conditions": "Lisinopril plus Saline, after 12 weeks, scale none (0) to severe (5)"}, "[5]": {"conditions": "UniNx db/db AAV renin mice, Lisinopril plus Saline, after 12 weeks"}, "[6]": {"conditions": "UniNx db/db AAV renin mice, Lisinopril plus Saline, baseline"}}, "note": "Like-named read-outs stand apart in the source and are kept apart here. Marks after values point to notes of the source that are not given here. Starred links: 1 amine or outer side, 2 acyl side, 3 side chain; linkers in the order of their positions; H or OH if unused. Non-standard residues stand in square brackets, D forms with d. Residues, ends and D or L forms follow the SMILES beside them. Groups on a side chain read outwards from the residue. *: point of attachment. C20 diacid = O=C(O)CCCCCCCCCCCCCCCCCCC(=O)*; C18 diacid = O=C(O)CCCCCCCCCCCCCCCCC(=O)*; γGlu = O=C(O)[C@H](CCC(=O)[*:2])N[*:1]; NMeI = CC[C@H](C)[C@H](NC)C(=O)O; AEEA = NCCOCCOCC(=O)O", "data": [{"molecule": "CC[C@H](C)[C@H](NC(C)=O)C(=O)N[C@H](C(=O)N[C@@H](CC(C)C)C(=O)N[C@@H](CO)C(=O)N[C@@H](CC(C)C)C(=O)N[C@@H](CC(=O)O)C(=O)N[C@H](C(=O)N1CCC[C@H]1C(=O)N[C@H](C(=O)NCC(=O)N[C@@H](CC(C)C)C(=O)N[C@@H](CC(C)C)C(=O)N[C@@H](CCC(N)=O)C(=O)N[C@H](C(=O)N[C@@H](CC(C)C)C(=O)N[C@@H](CC(C)C)C(=O)N[C@@H](CCC(=O)O)C(=O)N[C@@H](CCC(N)=O)C(=O)N[C@@H](CCC(=O)O)C(=O)N[C@@H](CCCCN)C(=O)N[C@@H](CCC(N)=O)C(=O)N[C@@H](CCC(=O)O)C(=O)N[C@@H](CCCCN)C(=O)N[C@@H](CCC(=O)O)C(=O)N[C@@H](CCCCN)C(=O)N[C@@H](CCC(N)=O)C(=O)N[C@@H](CCC(N)=O)C(=O)N[C@@H](C)C(=O)N[C@@H](CCCCNC(=O)COCCOCCNC(=O)COCCOCCNC(=O)CC[C@H](NC(=O)CC[C@H](NC(=O)CCCCCCCCCCCCCCCCC(=O)O)C(=O)O)C(=O)O)C(=O)N[C@H](C(=O)N[C@@H](CC(N)=O)C(=O)N[C@@H](C)C(=O)N[C@@H](CCC(N)=O)C(=O)N[C@H](C(=O)N[C@@H](CC(C)C)C(=O)N[C@@H](C)C(=O)N[C@@H](CCC(N)=O)C(=O)N[C@H](C(N)=O)C(C)C)[C@@H](C)CC)[C@@H](C)O)[C@@H](C)CC)[C@@H](C)CC)C(C)C)C(C)C", "note": "[Example 1] (Ac-IVLSLDVPIGLLQILLEQEKQEKEKQQAK([AEEA-AEEA-γGlu-γGlu-C18 diacid])TNAQILAQV-NH2)", "values": [{"measurement": "EC50", "setting": "human CRHR2b; [3]", "value": "2.44 ± 1.36", "unit": "nM"}, {"measurement": "AUC(0-inf)", "setting": "[1]", "value": 32.2, "unit": "µM·h"}, {"measurement": "CL/F", "setting": "[1]", "value": 0.202, "unit": "mL/min/kg"}, {"measurement": "Cmax", "setting": "[1]", "value": 1150, "unit": "nM"}, {"measurement": "Tmax", "setting": "[1]", "value": 12, "unit": "h"}, {"measurement": "half-life", "setting": "[1]", "value": 16, "unit": "h"}]}, {"molecule": "CC[C@H](C)[C@H](NC)C(=O)N[C@H](C(=O)N[C@H](C(=O)N[C@@H](CO)C(=O)N[C@@H](CC(C)C)C(=O)N[C@@H](CC(=O)O)C(=O)N[C@H](C(=O)N1CCC[C@H]1C(=O)N[C@H](C(=O)NCC(=O)N[C@@H](CC(C)C)C(=O)N[C@@H](CC(C)C)C(=O)N[C@@H](CCC(N)=O)C(=O)N[C@H](C(=O)N[C@@H](CC(C)C)C(=O)N[C@H](C(=O)N[C@@H](CCC(=O)O)C(=O)N[C@@H](CCC(N)=O)C(=O)N[C@@H](CCC(=O)O)C(=O)N[C@@H](CCCCN)C(=O)N[C@@H](CCC(N)=O)C(=O)N[C@@H](CCC(=O)O)C(=O)N[C@@H](CCCCN)C(=O)N[C@@H](CCC(=O)O)C(=O)N[C@@H](CCCCN)C(=O)N[C@@H](CCC(N)=O)C(=O)N[C@@H](CCC(N)=O)C(=O)N[C@@H](C)C(=O)N[C@@H](CCCCNC(=O)COCCOCCNC(=O)COCCOCCNC(=O)CC[C@H](NC(=O)CC[C@H](NC(=O)CCCCCCCCCCCCCCCCCCC(=O)O)C(=O)O)C(=O)O)C(=O)N[C@H](C(=O)N[C@@H](CC(N)=O)C(=O)N[C@@H](C)C(=O)N[C@@H](CCC(=O)O)C(=O)N[C@H](C(=O)N[C@@H](CC(C)C)C(=O)N[C@@H](C)C(=O)N[C@@H](CCC(N)=O)C(=O)N[C@H](C(N)=O)C(C)C)[C@@H](C)CC)[C@@H](C)O)[C@@H](C)CC)[C@@H](C)CC)[C@@H](C)CC)C(C)C)[C@@H](C)O)C(C)C", "note": "[Example 7] (H-[NMeI]VTSLDVPIGLLQILIEQEKQEKEKQQAK([AEEA-AEEA-γGlu-γGlu-C20 diacid])TNAEILAQV-NH2)", "values": [{"measurement": "EC50", "setting": "human CRHR2b; [3]", "value": "0.94 ± 0.05", "unit": "nM"}]}, {"molecule": "NCCCC[C@H](N[C@@H](CCc1ccccc1)C(=O)O)C(=O)N1CCC[C@H]1C(=O)O", "note": "[Lisinopril]", "values": [{"measurement": "Glomerular Fibrosis, pathology score", "setting": "[2]; [4]", "value": "1.4 ± 0.2 ^a"}, {"measurement": "Interstitial Fibrosis, pathology score", "setting": "[2]; [4]", "value": "2.0 ± 0.3 ^"}, {"measurement": "Interstitial Inflammation, pathology score", "setting": "[2]; [4]", "value": "1.1 ± 0.3 ^a"}, {"measurement": "Mesangial Matrix Expansion, pathology score", "setting": "[2]; [4]", "value": "2.1 ± 0.1 ^a"}, {"measurement": "Tubular Regeneration, pathology score", "setting": "[2]; [4]", "value": "2.0 ± 0.2 ^a"}, {"measurement": "Albumin to Creatinine Ratio (ACR)", "setting": "[2]; Lisinopril plus Saline, week 0 of treatment with Example 4", "value": "15203 ± 2835 ^"}, {"measurement": "Albumin to Creatinine Ratio (ACR)", "setting": "[2]; Lisinopril plus Saline, week 1", "value": "16491 ± 3362 ^"}, {"measurement": "Albumin to Creatinine Ratio (ACR)", "setting": "[2]; Lisinopril plus Saline, week 2", "value": "16160 ± 4162 ^a"}, {"measurement": "Albumin to Creatinine Ratio (ACR)", "setting": "[2]; Lisinopril plus Saline, week 3", "value": "13069 ± 3295 ^a"}, {"measurement": "Albumin to Creatinine Ratio (ACR)", "setting": "[2]; Lisinopril plus Saline, week 6", "value": "11584 ± 3132 ^a"}, {"measurement": "Albumin to Creatinine Ratio (ACR)", "setting": "[2]; Lisinopril plus Saline, week 8", "value": "12484 ± 4626 ^a"}, {"measurement": "Albumin to Creatinine Ratio (ACR)", "setting": "[2]; Lisinopril plus Saline, week 10", "value": "20429 ± 4998 ^a"}, {"measurement": "Albumin to Creatinine Ratio (ACR)", "setting": "[2]; Lisinopril plus Saline, week 12", "value": "19075 ± 6268 ^a"}, {"measurement": "deaths over the course of the study", "setting": "[2]; Lisinopril plus saline group (N=9)", "value": 2}, {"measurement": "Final Blood Glucose", "setting": "[2]; [5]", "value": 466, "unit": "mg/dL"}, {"measurement": "Final Body Weight", "setting": "[2]; [5]", "value": 61.8, "unit": "g"}, {"measurement": "Heart Weight", "setting": "[2]; [5]", "value": 227, "unit": "mgs"}, {"measurement": "Kidney Weight", "setting": "[2]; [5]", "value": 392, "unit": "mgs"}, {"measurement": "Serum Creatinine", "setting": "[2]; [5]", "value": 0.130, "unit": "mg/dL"}, {"measurement": "Initial Blood Glucose", "setting": "[2]; [6]", "value": 444, "unit": "mg/dL"}, {"measurement": "Initial Body Weight", "setting": "[2]; [6]", "value": 61.6, "unit": "g"}]}, {"molecule": "IVLSLDVPIGLLQILLEQEKQEKEKQQAK*ENAQILAQV-NH2 [Compound 56, K* at position 29 bonded with ([2-(2-Amino-ethoxy)-ethoxy]-acetyl)2-γE-CO—(CH2)16—COOH; C-terminal primary amide]", "values": [{"measurement": "EC50", "setting": "human CRHR2b; Table 26, compounds of Example 9", "value": 1.17, "unit": "nM"}]}]}
